According to US20100151062A1, “Determining nutrients for animals through gene expression” (priority 2008, published 2010):

Test system: cartilage cells of individual affected unhealthy dogs
Assay: In vitro culture of cartilage cells of affected dogs with curcumin or andrographolide, microarray
Format: cell-based, dog
Conditions: mean; for Fold change of gene expression, ACTB / Fold change of gene expression, ACTR3 / Fold change of gene expression, ADK / Fold change of gene expression, ANKRD10 / Fold change of gene expression, CAV1 / Fold change of gene expression, CDH11 / Fold change of gene expression, COL3A1 / Fold change of gene expression, COX1 / Fold change of gene expression, COX2 / Fold change of gene expression, IGFBP7 / Fold change of gene expression, IL2 / Fold change of gene expression, MMP2 / Fold change of gene expression, NOS2 / Fold change of gene expression, PTGS-2 / Fold change of gene expression, SPARC / Fold change of gene expression, STMN1 / Fold change of gene expression, TIMP1 / Fold change of gene expression, TIMP2 / Fold change of gene expression, TNF-a / Fold change of gene expression, TUBA / Fold change of gene expression, TUBB: 60 mg/l vs 0, 6 hours, cartilage cells of affected dogs; for Fold change of gene expression, ACTB / Net effect of the NBC on fold change, ACTB: gene ACTB; for Net effect of the NBC on fold change, ACTB / Net effect of the NBC on fold change, ACTR3 / Net effect of the NBC on fold change, ADK / Net effect of the NBC on fold change, ANKRD10 / Net effect of the NBC on fold change, CAV1 / Net effect of the NBC on fold change, CDH11 / Net effect of the NBC on fold change, COL3A1 / Net effect of the NBC on fold change, COX1 / Net effect of the NBC on fold change, COX2 / Net effect of the NBC on fold change, IGFBP7 / Net effect of the NBC on fold change, IL2 / Net effect of the NBC on fold change, MMP2 / Net effect of the NBC on fold change, NOS2 / Net effect of the NBC on fold change, PTGS-2 / Net effect of the NBC on fold change, SPARC / Net effect of the NBC on fold change, STMN1 / Net effect of the NBC on fold change, TIMP1 / Net effect of the NBC on fold change, TIMP2 / Net effect of the NBC on fold change, TNF-a / Net effect of the NBC on fold change, TUBA / Net effect of the NBC on fold change, TUBB: 60 mg/l, 6 hours; for Fold change of gene expression, ACTR3 / Net effect of the NBC on fold change, ACTR3: gene ACTR3; for Fold change of gene expression, ADK / Net effect of the NBC on fold change, ADK: gene ADK; for Fold change of gene expression, ANKRD10 / Net effect of the NBC on fold change, ANKRD10: gene ANKRD10; for Fold change of gene expression, CAV1 / Net effect of the NBC on fold change, CAV1: gene CAV1; for Fold change of gene expression, CDH11 / Net effect of the NBC on fold change, CDH11: gene CDH11; for Fold change of gene expression, COL3A1 / Net effect of the NBC on fold change, COL3A1: gene COL3A1; for Fold change of gene expression, COX1 / Net effect of the NBC on fold change, COX1: gene COX1; for Fold change of gene expression, COX2 / Net effect of the NBC on fold change, COX2: gene COX2; for Fold change of gene expression, IGFBP7 / Net effect of the NBC on fold change, IGFBP7: gene IGFBP7; for Fold change of gene expression, IL2 / Net effect of the NBC on fold change, IL2: gene IL2; for Fold change of gene expression, MMP2 / Net effect of the NBC on fold change, MMP2: gene MMP2; for Fold change of gene expression, NOS2 / Net effect of the NBC on fold change, NOS2: gene NOS2; for Fold change of gene expression, PTGS-2 / Net effect of the NBC on fold change, PTGS-2: gene PTGS-2; for Fold change of gene expression, SPARC / Net effect of the NBC on fold change, SPARC: gene SPARC; for Fold change of gene expression, STMN1 / Net effect of the NBC on fold change, STMN1: gene STMN1; for Fold change of gene expression, TIMP1 / Net effect of the NBC on fold change, TIMP1: gene TIMP1; for Fold change of gene expression, TIMP2 / Net effect of the NBC on fold change, TIMP2: gene TIMP2; for Fold change of gene expression, TNF-a / Net effect of the NBC on fold change, TNF-a: gene TNF-a; for Fold change of gene expression, TUBA / Net effect of the NBC on fold change, TUBA: gene TUBA; for Fold change of gene expression, TUBB / Net effect of the NBC on fold change, TUBB: gene TUBB
Method: Total RNA of cells was extracted using phenol/guanidine HCl reagents (Trizol, Invitrogen). RNA quality integrity was analysed using the Agilent 2100 Bioanalyser (Agilent Technologies) of the sample. The samples determined to have no, or minimal, loss of integrity and thus were considered suitable for use in experiments. mRNA was amplified for each sample, starting with 500 ng total RNA using a commercially available kit (Ambion T7 MEGAscript high yield transcription kit, Ambion). The mRNA was quantified using a spectrophotometer. mRNA was directly reverse transcribed to cDNA from 25 μg of total RNA using the Superscript indirect cDNA labeling Core kit (Invitrogen, Milan, Italy).
Two micrograms of cDNA were labelled with Cyanine-3dCTP (Cy3) or Cyanine-5dCTP (Cy5) fluorochromes using the cDNA labeling purification module kit (Invitrogen, Milan, Italy). Samples were hybridised to a canine specific, whole genome 44k spot 60mer oligonucleotide (Agilent Technologies). The labelled cDNA was appropriately coupled and used for competitive hybridization on the same microarray at 42° C. for 16 h. Fluorescence incorporation was determined using a spectrophotometer. The relative intensity of labelled cDNA in was acquired with ScanArray LITE scanner (PerkinElmer Life Sciences, Inc).
Expression data were then exported into Excel 2007 and processed with SAM software; comparison between groups was achieved using paired student's t tests. […] Correction for multiple hypothesis testing was performed using the false discovery rate (FDR).
Searching within the nutrient data set for biologically active nutrients with anti-arthritic and anti-inflammatory properties identified curcumin and androgropholide as the appropriated compositions. The cartilage cells of individual affected unhealthy dogs were cultured in vitro with 0, or 60 mg/l of curcumin or androgropholide for 6 hours. At the end of the incubation, these cartilage cells from individual affected dogs were washed and used for RNA extraction. For the microarray analysis, co-hybridisation of the RNA from 0 and 60 mg/l was conducted, using the material and the methods described previously.

COc1cc(/C=C/C(=O)CC(=O)/C=C/c2ccc(O)c(OC)c2)ccc1O [curcumin]
Fold change of gene expression, ACTB: −5.0 | Net effect of the NBC on fold change, ACTB: −1.2 | Fold change of gene expression, ACTR3: −1.0 | Net effect of the NBC on fold change, ACTR3: −4.0 | Fold change of gene expression, ADK: −4.3 | Net effect of the NBC on fold change, ADK: −1.4 | Fold change of gene expression, ANKRD10: −7.0 | Net effect of the NBC on fold change, ANKRD10: −1.8 | Fold change of gene expression, CAV1: −3.0 | Net effect of the NBC on fold change, CAV1: 1.8 | Fold change of gene expression, CDH11: −6.0 | Net effect of the NBC on fold change, CDH11: 0.9 | Fold change of gene expression, COL3A1: −6.0 | Net effect of the NBC on fold change, COL3A1: 3.5 | Fold change of gene expression, COX1: −1.0 | Net effect of the NBC on fold change, COX1: −0.2 | Fold change of gene expression, COX2: −15.0 | Net effect of the NBC on fold change, COX2: 8.0 | Fold change of gene expression, IGFBP7: −1.5 | Net effect of the NBC on fold change, IGFBP7: 2.2 | Fold change of gene expression, IL2: −4.0 | Net effect of the NBC on fold change, IL2: −1.0 | Fold change of gene expression, MMP2: −6.5 | Net effect of the NBC on fold change, MMP2: 3.5 | Fold change of gene expression, NOS2: −0.5 | Net effect of the NBC on fold change, NOS2: −0.3 | Fold change of gene expression, PTGS-2: −3.0 | Net effect of the NBC on fold change, PTGS-2: −1.8 | Fold change of gene expression, SPARC: −4.0 | Net effect of the NBC on fold change, SPARC: 2.3 | Fold change of gene expression, STMN1: −5.0 | Net effect of the NBC on fold change, STMN1: 1.2 | Fold change of gene expression, TIMP1: −5.0 | Net effect of the NBC on fold change, TIMP1: 1.2 | Fold change of gene expression, TIMP2: −2.0 | Net effect of the NBC on fold change, TIMP2: 0.0 | Fold change of gene expression, TNF-a: −14.5 | Net effect of the NBC on fold change, TNF-a: −4.5 | Fold change of gene expression, TUBA: −2.0 | Net effect of the NBC on fold change, TUBA: 2.7 | Fold change of gene expression, TUBB: −5.0 | Net effect of the NBC on fold change, TUBB: −0.2

C=C1CC[C@@H]2[C@](C)(CO)[C@H](O)CC[C@@]2(C)[C@@H]1C/C=C1/C(=O)OC[C@H]1O [Androgrpholide]
Fold change of gene expression, ACTB: −1.0 | Net effect of the NBC on fold change, ACTB: 2.8 | Fold change of gene expression, ACTR3: 1.0 | Net effect of the NBC on fold change, ACTR3: 1.3 | Fold change of gene expression, ADK: 0.0 | Net effect of the NBC on fold change, ADK: 3.6 | Fold change of gene expression, ANKRD10: 0.0 | Net effect of the NBC on fold change, ANKRD10: 5.2 | Fold change of gene expression, CAV1: 0.0 | Net effect of the NBC on fold change, CAV1: 4.8 | Fold change of gene expression, CDH11: −1.0 | Net effect of the NBC on fold change, CDH11: 5.9 | Fold change of gene expression, COL3A1: −2.0 | Net effect of the NBC on fold change, COL3A1: 7.5 | Fold change of gene expression, COX1: 0.0 | Net effect of the NBC on fold change, COX1: 0.8 | Fold change of gene expression, COX2: 0.0 | Net effect of the NBC on fold change, COX2: 23.0 | Fold change of gene expression, IGFBP7: −2.0 | Net effect of the NBC on fold change, IGFBP7: 1.7 | Fold change of gene expression, IL2: −6.0 | Net effect of the NBC on fold change, IL2: −3.0 | Fold change of gene expression, MMP2: −5.0 | Net effect of the NBC on fold change, MMP2: 5.0 | Fold change of gene expression, NOS2: −6.0 | Net effect of the NBC on fold change, NOS2: −5.8 | Fold change of gene expression, PTGS-2: −5.0 | Net effect of the NBC on fold change, PTGS-2: −3.8 | Fold change of gene expression, SPARC: 0.0 | Net effect of the NBC on fold change, SPARC: 6.3 | Fold change of gene expression, STMN1: 0.0 | Net effect of the NBC on fold change, STMN1: 6.2 | Fold change of gene expression, TIMP1: 0.0 | Net effect of the NBC on fold change, TIMP1: 6.2 | Fold change of gene expression, TIMP2: 0.0 | Net effect of the NBC on fold change, TIMP2: 2.0 | Fold change of gene expression, TNF-a: −8.0 | Net effect of the NBC on fold change, TNF-a: 2.0 | Fold change of gene expression, TUBA: 0.0 | Net effect of the NBC on fold change, TUBA: 4.7 | Fold change of gene expression, TUBB: 0.0 | Net effect of the NBC on fold change, TUBB: 4.8
